Source: ChEMBL document CHEMBL2434921, “New synthetic aliphatic sulfonamido-quaternary ammonium salts as anticancer chemotherapeutic agents” (2013)
Activity calls are given as the source filed them. The calls are words filed in the database; no cut-off is given here.

Assays:
[1] = system: PC-3; assay: Growth inhibition of human PC3 cells after 48 hrs by SRB assay; type: functional; settings: PC-3, 48 h
[2] = system: NCI-H23; assay: Growth inhibition of human NCI-H23 cells at 3 uM after 48 hrs by SRB assay; values are per cent of control; settings: NCI-H23, 48 h
[3] = system: NCI-H23; assay: Growth inhibition of human NCI-H23 cells after 48 hrs by SRB assay; type: functional; settings: NCI-H23, 48 h
[4] = system: NCI-H23; assay: Growth of human NCI-H23 cells at 0.3 uM after 48 hrs by SRB assay; settings: NCI-H23, 48 h
[5] = system: NCI-H23; assay: Growth inhibition of human NCI-H23 cells at 1 uM after 48 hrs by SRB assay; values are per cent of control; settings: NCI-H23, 48 h
[6] = system: ACHN; assay: Growth of human ACHN cells at 0.3 uM after 48 hrs by SRB assay
[7] = system: HCT-15; assay: Growth inhibition of human HCT15 cells at 10 uM after 48 hrs by SRB assay; values are per cent of control; settings: HCT-15, 48 h
[8] = system: NUGC-3; assay: Growth of human NUGC3 cells at 1 uM after 48 hrs by SRB assay; settings: NUGC-3, 48 h
[9] = system: MDA-MB-231; assay: Growth inhibition of human MDA-MB-231 cells after 48 hrs by SRB assay; type: functional; settings: MDA-MB-231, 48 h
[10] = system: HCT-15; assay: Growth inhibition of human HCT15 cells after 48 hrs by SRB assay; type: functional; settings: HCT-15, 48 h
[11] = system: PC-3; assay: Growth inhibition of human PC3 cells at 0.1 uM after 48 hrs by SRB assay; values are per cent of control; settings: PC-3, 48 h
[12] = system: MDA-MB-231; assay: Growth of human MDA-MB-231 cells at 1 uM after 48 hrs by SRB assay; settings: MDA-MB-231, 48 h
[13] = system: NUGC-3; assay: Growth inhibition of human NUGC3 cells at 3 uM after 48 hrs by SRB assay; values are per cent of control; settings: NUGC-3, 48 h
[14] = system: NUGC-3; assay: Growth inhibition of human NUGC3 cells after 48 hrs by SRB assay; type: functional; settings: NUGC-3, 48 h
[15] = system: PC-3; assay: Growth inhibition of human PC3 cells at 0.3 uM after 48 hrs by SRB assay; values are per cent of control; settings: PC-3, 48 h
[16] = system: MDA-MB-231; assay: Growth of human MDA-MB-231 cells at 3 uM after 48 hrs by SRB assay; values are per cent of control; settings: MDA-MB-231, 48 h
[17] = system: PC-3; assay: Growth of human PC3 cells at 10 uM after 48 hrs by SRB assay; settings: PC-3, 48 h
[18] = system: NUGC-3; assay: Growth of human NUGC3 cells at 0.1 uM after 48 hrs by SRB assay; settings: NUGC-3, 48 h
[19] = system: HCT-15; assay: Growth of human HCT15 cells at 3 uM after 48 hrs by SRB assay; settings: HCT-15, 48 h
[20] = system: HCT-15; assay: Growth inhibition of human HCT15 cells at 0.1 uM after 48 hrs by SRB assay; values are per cent of control; settings: HCT-15, 48 h
[21] = system: NUGC-3; assay: Growth of human NUGC3 cells at 0.3 uM after 48 hrs by SRB assay; settings: NUGC-3, 48 h
[22] = biological target: Rho-related GTP-binding protein RhoB (Homo sapiens) (UniProt P62745); assay: Transactivation of RhoB (unknown origin) transfected in human HeLa cells at 5 uM measured over 10 secs by dual luciferase reporter gene assay; type: cell-based
Chain of Rho-related GTP-binding protein RhoB (Homo sapiens) (P62745 whole entry): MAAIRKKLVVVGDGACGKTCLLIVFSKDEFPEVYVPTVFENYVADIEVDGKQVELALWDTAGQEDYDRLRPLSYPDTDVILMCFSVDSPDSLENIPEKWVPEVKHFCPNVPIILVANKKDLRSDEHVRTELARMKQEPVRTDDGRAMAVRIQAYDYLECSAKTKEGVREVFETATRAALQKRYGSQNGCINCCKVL

[23] = system: NCI-H23; assay: Growth inhibition of human NCI-H23 cells at 0.1 uM after 48 hrs by SRB assay; values are per cent of control; settings: NCI-H23, 48 h
[24] = system: ACHN; assay: Growth inhibition of human ACHN cells after 48 hrs by SRB assay; type: functional
[25] = system: HCT-15; assay: Growth of human HCT15 cells at 0.3 uM after 48 hrs by SRB assay; settings: HCT-15, 48 h
[26] = system: MDA-MB-231; assay: Growth of human MDA-MB-231 cells at 0.1 uM after 48 hrs by SRB assay; settings: MDA-MB-231, 48 h
[27] = system: MDA-MB-231; assay: Growth inhibition of human MDA-MB-231 cells at 0.3 uM after 48 hrs by SRB assay; values are per cent of control; settings: MDA-MB-231, 48 h
[28] = system: MDA-MB-231; assay: Growth of human MDA-MB-231 cells at 10 uM after 48 hrs by SRB assay; settings: MDA-MB-231, 48 h
[29] = system: PC-3; assay: Growth inhibition of human PC3 cells at 3 uM after 48 hrs by SRB assay; values are per cent of control; settings: PC-3, 48 h
[30] = system: NUGC-3; assay: Growth inhibition of human NUGC3 cells at 10 uM after 48 hrs by SRB assay; values are per cent of control; settings: NUGC-3, 48 h
[31] = system: NCI-H23; assay: Growth of human NCI-H23 cells at 10 uM after 48 hrs by SRB assay; settings: NCI-H23, 48 h
[32] = system: ACHN; assay: Growth inhibition of human ACHN cells at 1 uM after 48 hrs by SRB assay; values are per cent of control
[33] = system: ACHN; assay: Growth of human ACHN cells at 10 uM after 48 hrs by SRB assay
[34] = system: ACHN; assay: Growth of human ACHN cells at 0.1 uM after 48 hrs by SRB assay
[35] = system: HCT-15; assay: Growth inhibition of human HCT15 cells at 1 uM after 48 hrs by SRB assay; values are per cent of control; settings: HCT-15, 48 h
[36] = system: ACHN; assay: Growth inhibition of human ACHN cells at 3 uM after 48 hrs by SRB assay; values are per cent of control
[37] = system: PC-3; assay: Growth inhibition of human PC3 cells at 1 uM after 48 hrs by SRB assay; values are per cent of control; settings: PC-3, 48 h

CCCCCCCCCCCCCCCCS(=O)(=O)N(C)CC[N+](CC)(CC)CC
GI50 [1]: 520 nM
growth, % of control at 3 µM [2]: 15.5%
GI50 [3]: 550 nM
growth, % of control at 0.3 µM [4]: 93.7%
growth, % of control at 1 µM [5]: 44.3%
growth, % of control at 0.3 µM [6]: 92.8%
growth, % of control at 10 µM [7]: 21.8%
growth, % of control at 1 µM [8]: 19.6%
GI50 [9]: 1170 nM
GI50 [10]: 1610 nM
growth, % of control at 0.1 µM [11]: 95.5%
growth, % of control at 1 µM [12]: 65.5%
growth, % of control at 3 µM [13]: 5.8%
GI50 [14]: 220 nM
growth, % of control at 0.3 µM [15]: 84.7%
growth, % of control at 3 µM [16]: 37.4%
growth, % of control at 10 µM [17]: -21.4%
growth, % of control at 0.1 µM [18]: 69.8%
growth, % of control at 3 µM [19]: 50.9%
growth, % of control at 0.1 µM [20]: 83%
growth, % of control at 0.3 µM [21]: 70.3%
Activity [22]: Active
growth, % of control at 0.1 µM [23]: 94%
GI50 [24]: 1310 nM
growth, % of control at 0.3 µM [25]: 87.6%
growth, % of control at 0.1 µM [26]: 87.3%
growth, % of control at 0.3 µM [27]: 96.5%
growth, % of control at 10 µM [28]: 20%
growth, % of control at 3 µM [29]: 11.3%
growth, % of control at 10 µM [30]: -4%
growth, % of control at 10 µM [31]: 3.4%
growth, % of control at 1 µM [32]: 70.4%
growth, % of control at 10 µM [33]: 15.4%
growth, % of control at 0.1 µM [34]: 92.6%
growth, % of control at 1 µM [35]: 73.5%
growth, % of control at 3 µM [36]: 43.4%
growth, % of control at 1 µM [37]: 47.5%

CCCCCCCCCCCCCCS(=O)(=O)NCCC[N+](C)(C)C [TRIMETHYL-[3-(TETRADECANE-1-SULFONYLAMINO)-PROPYL]-AMMONIUM IODIDE]
GI50 [1]: 450 nM
growth, % of control at 3 µM [2]: -5.1%
GI50 [3]: 460 nM
growth, % of control at 0.3 µM [4]: 86.5%
growth, % of control at 1 µM [5]: 48.4%
growth, % of control at 0.3 µM [6]: 88.6%
growth, % of control at 10 µM [7]: 22%
growth, % of control at 1 µM [8]: 43.1%
GI50 [9]: 1400 nM
GI50 [10]: 940 nM
growth, % of control at 0.1 µM [11]: 86.7%
growth, % of control at 1 µM [12]: 76.7%
growth, % of control at 3 µM [13]: 21.5%
GI50 [14]: 380 nM
growth, % of control at 0.3 µM [15]: 80.6%
growth, % of control at 3 µM [16]: 45.3%
growth, % of control at 10 µM [17]: -7.8%
growth, % of control at 0.1 µM [18]: 84.4%
growth, % of control at 3 µM [19]: 31.5%
growth, % of control at 0.1 µM [20]: 94.3%
growth, % of control at 0.3 µM [21]: 73.2%
Activity [22]: Active
growth, % of control at 0.1 µM [23]: 84.7%
GI50 [24]: 2040 nM
growth, % of control at 0.3 µM [25]: 91.2%
growth, % of control at 0.1 µM [26]: 84.6%
growth, % of control at 0.3 µM [27]: 86.4%
growth, % of control at 10 µM [28]: 25.1%
growth, % of control at 3 µM [29]: 9.5%
growth, % of control at 10 µM [30]: 5.4%
growth, % of control at 10 µM [31]: -34.5%
growth, % of control at 1 µM [32]: 96.8%
growth, % of control at 10 µM [33]: 29.7%
growth, % of control at 0.1 µM [34]: 88%
growth, % of control at 1 µM [35]: 66.5%
growth, % of control at 3 µM [36]: 49.9%
growth, % of control at 1 µM [37]: 52.2%

CCCCCCCCCCCCCCS(=O)(=O)NCCC[N+](C)(C)CC
GI50 [1]: 300 nM
growth, % of control at 3 µM [2]: -10.6%
GI50 [3]: 330 nM
growth, % of control at 0.3 µM [4]: 88.7%
growth, % of control at 1 µM [5]: 24%
growth, % of control at 0.3 µM [6]: 91.4%
growth, % of control at 10 µM [7]: 23.4%
growth, % of control at 1 µM [8]: 34%
GI50 [9]: 1170 nM
GI50 [10]: 1140 nM
growth, % of control at 0.1 µM [11]: 89.8%
growth, % of control at 1 µM [12]: 66.2%
growth, % of control at 3 µM [13]: 11.2%
GI50 [14]: 290 nM
growth, % of control at 0.3 µM [15]: 72.7%
growth, % of control at 3 µM [16]: 43.8%
growth, % of control at 10 µM [17]: -11.5%
growth, % of control at 0.1 µM [18]: 85.1%
growth, % of control at 3 µM [19]: 36.9%
growth, % of control at 0.1 µM [20]: 97%
growth, % of control at 0.3 µM [21]: 69%
Activity [22]: Active
growth, % of control at 0.1 µM [23]: 93.3%
GI50 [24]: 1640 nM
growth, % of control at 0.3 µM [25]: 94.5%
growth, % of control at 0.1 µM [26]: 83.1%
growth, % of control at 0.3 µM [27]: 86.4%
growth, % of control at 10 µM [28]: 23.9%
growth, % of control at 3 µM [29]: 6.9%
growth, % of control at 10 µM [30]: -4.7%
growth, % of control at 10 µM [31]: -45.5%
growth, % of control at 1 µM [32]: 92.5%
growth, % of control at 10 µM [33]: 24.5%
growth, % of control at 0.1 µM [34]: 91.4%
growth, % of control at 1 µM [35]: 68.2%
growth, % of control at 3 µM [36]: 42.5%
growth, % of control at 1 µM [37]: 33.4%
